Reference: ChEMBL document CHEMBL1201862, “PubChem BioAssay data set” (2004)
Calls of active or inactive are those of the source.

Tests used:
Coagulation factor XII = target: T1, Coagulation factor XII (Homo sapiens, UniProt P00748); assay type: functional;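 further: activated factor XIIa alpha cleaving a fluorogenic AMC peptide substrate; inhibitor potency from loss of enzyme activity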
T1 sequence (P00748 whole entry): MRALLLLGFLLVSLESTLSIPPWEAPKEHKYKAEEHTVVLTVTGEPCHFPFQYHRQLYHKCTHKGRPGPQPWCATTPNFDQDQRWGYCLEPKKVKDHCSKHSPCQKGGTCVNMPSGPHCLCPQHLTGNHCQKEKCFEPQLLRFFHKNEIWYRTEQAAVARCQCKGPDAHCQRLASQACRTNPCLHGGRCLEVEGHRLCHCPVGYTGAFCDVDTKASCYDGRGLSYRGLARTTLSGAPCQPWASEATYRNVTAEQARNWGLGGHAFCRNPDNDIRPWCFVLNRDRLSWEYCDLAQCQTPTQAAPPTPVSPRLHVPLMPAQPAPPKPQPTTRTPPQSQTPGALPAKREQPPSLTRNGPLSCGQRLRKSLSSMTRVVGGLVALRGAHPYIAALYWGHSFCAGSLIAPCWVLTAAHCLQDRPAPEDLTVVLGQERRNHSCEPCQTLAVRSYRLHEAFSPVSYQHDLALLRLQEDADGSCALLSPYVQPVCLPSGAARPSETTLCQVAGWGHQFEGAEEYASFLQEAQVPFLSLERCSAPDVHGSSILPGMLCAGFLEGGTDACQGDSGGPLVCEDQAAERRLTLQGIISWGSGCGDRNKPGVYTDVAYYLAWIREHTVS

[1] = inhibitors of SNCA 5'UTR-driven reporter translation, confirmation, H4 neuroglioma cells, luminescence (AID 1988); assay type: functional, cell-based
[2] = inhibitors of firefly luciferase expression or activity, dose response, H4 neuroglioma cells, luminescence (AID 1990); assay type: functional, cell-based
Vero = experiment: cells; assay type: functional, cell-based; settings: Chlorocebus sabaeus
[3] = Luminescence Cell-Based Dose Response HTS to Identify Inhibitors of 5'UTR Stem-Loop Driven Prion Protein mRNA Translation in H4 Neuroglioblastoma Cells. [Related pubchem assays: 1827 (Project Summary), 1813 (Primary HTS)]; assay type: functional
Protein RecA = target: T2, Protein RecA (Mycobacterium tuberculosis, UniProt P9WHJ3); experiment: Fluorescence Cell-Free Homogeneous Dose Retest to Identify Inhibitors of RecA-Intein Splicing Activity. [Related pubchem assays (depositor defined):AID2097, AID2223, AID489010, AID492950]; assay type: functional
T2 sequence (P9WHJ3 whole entry): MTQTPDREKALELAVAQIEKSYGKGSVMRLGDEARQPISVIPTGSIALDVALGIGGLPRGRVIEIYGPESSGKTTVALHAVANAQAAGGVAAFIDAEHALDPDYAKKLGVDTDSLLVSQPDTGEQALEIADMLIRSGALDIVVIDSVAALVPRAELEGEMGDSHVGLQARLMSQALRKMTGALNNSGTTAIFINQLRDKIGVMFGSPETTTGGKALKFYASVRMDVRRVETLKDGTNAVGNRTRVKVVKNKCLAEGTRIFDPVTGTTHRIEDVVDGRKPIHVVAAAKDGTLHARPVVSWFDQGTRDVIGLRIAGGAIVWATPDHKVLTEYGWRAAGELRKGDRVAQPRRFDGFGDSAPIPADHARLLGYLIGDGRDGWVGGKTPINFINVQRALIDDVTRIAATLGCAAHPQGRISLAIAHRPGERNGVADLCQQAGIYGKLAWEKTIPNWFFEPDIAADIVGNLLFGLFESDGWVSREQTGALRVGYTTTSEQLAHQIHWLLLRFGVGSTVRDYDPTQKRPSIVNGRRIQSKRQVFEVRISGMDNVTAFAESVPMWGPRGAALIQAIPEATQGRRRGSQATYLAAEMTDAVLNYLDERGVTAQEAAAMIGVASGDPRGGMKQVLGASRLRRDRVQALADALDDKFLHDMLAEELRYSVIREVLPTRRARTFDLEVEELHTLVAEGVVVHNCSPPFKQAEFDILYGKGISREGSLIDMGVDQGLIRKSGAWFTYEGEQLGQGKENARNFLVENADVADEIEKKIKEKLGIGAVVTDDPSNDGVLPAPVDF

Genome polyprotein = Genome polyprotein (dengue virus type 2, UniProt P29990); experiment: Dengue-2 NS5 methyltransferase inhibitors, primary screen, biochemical, confirmation dose response (AID 588689); assay type: functional
[4] = target: T3, Replicative DNA helicase DnaB (Mycobacterium tuberculosis, UniProt P9WMR3); experiment: DnaB intein splicing inhibitors, dose response, biochemical, cell-free fluorescence (AID 449749); assay type: functional
T3 sequence (P9WMR3 whole entry): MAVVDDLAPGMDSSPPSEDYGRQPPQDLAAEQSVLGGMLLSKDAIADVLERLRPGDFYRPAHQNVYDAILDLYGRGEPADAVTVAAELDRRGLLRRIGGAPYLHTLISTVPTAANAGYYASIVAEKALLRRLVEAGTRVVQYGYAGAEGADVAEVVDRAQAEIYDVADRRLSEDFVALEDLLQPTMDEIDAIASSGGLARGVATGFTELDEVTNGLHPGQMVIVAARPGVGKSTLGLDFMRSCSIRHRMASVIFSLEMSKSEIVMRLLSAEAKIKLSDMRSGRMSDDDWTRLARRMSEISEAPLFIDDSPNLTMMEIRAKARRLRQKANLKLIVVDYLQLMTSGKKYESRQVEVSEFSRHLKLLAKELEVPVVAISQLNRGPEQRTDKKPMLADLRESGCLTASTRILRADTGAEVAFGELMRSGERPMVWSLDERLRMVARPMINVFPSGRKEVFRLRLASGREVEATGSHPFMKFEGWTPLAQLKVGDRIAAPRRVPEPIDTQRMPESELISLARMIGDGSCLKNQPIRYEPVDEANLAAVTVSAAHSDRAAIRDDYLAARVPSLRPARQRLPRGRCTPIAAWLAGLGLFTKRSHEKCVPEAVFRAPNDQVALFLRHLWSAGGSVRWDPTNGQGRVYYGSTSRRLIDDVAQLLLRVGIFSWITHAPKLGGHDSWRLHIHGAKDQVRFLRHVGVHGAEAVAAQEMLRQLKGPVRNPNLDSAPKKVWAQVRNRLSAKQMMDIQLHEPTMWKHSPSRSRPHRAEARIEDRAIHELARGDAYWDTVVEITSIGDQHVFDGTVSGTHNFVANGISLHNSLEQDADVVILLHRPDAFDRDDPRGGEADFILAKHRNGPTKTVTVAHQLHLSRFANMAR

[5] = off-target signal loss in HeLa-CEM21 co-culture – HeLa F-luc CTL cells, cherry-picked, counter-screen for HIV-1 Env fusion inhibitor project, dose response (AID 652040); assay type: functional, cell-based;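 further: potency for signal decrease marking cytotoxic or nonspecific inhibition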
[6] = inhibitors of HIV Env-driven cell fusion, dose response, cherry-pick (AID 652057); assay type: functional, cell-based
[7] = ZM109 Env clade C HIV-1 fusion inhibitors, dose response, HeLa effector, CEM target cells, luciferase, cherry-pick (AID 652058); assay type: functional, cell-based
[8] = inhibitors of clade B AD8 Env fusion, dose response, cell-based, cherry-pick (AID 652062); assay type: functional;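 further: luciferase signal from cell-cell fusion driven by HIV-1 clade B AD8 Env; potency is for inhibitors of fusion seen as a drop in luminescence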
Cytochrome P450 2C9 = Cytochrome P450 2C9 (Homo sapiens, UniProt P11712)
[9] = target: T4, Microphthalmia-associated transcription factor (Homo sapiens, UniProt O75030); experiment: TRPM1 promoter luciferase signal decrease, dose response, MITF inhibitor project, cell-based, SK-MEL-5, cherry-picked, set 3 (AID 493073); assay type: functional
T4 sequence (O75030 whole entry): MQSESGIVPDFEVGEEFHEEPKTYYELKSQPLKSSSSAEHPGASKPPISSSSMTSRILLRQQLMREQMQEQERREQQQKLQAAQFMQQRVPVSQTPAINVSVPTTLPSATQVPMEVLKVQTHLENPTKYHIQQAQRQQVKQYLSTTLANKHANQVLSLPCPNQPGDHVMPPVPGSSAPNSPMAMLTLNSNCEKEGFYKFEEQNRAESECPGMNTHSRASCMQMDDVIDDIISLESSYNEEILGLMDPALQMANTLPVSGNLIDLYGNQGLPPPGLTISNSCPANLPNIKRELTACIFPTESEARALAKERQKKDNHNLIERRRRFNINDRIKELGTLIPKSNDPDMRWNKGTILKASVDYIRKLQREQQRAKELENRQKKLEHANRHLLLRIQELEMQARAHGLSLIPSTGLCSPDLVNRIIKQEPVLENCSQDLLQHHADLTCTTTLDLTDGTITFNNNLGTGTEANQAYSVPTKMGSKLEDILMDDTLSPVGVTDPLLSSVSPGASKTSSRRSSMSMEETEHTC

[10] = inhibitors of intracellular T. cruzi replication, confirmation, NIH3T3 host cells, beta-gal luminescence (AID 2044); assay type: functional, cell-based;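 further: intracellular parasites grown in NIH/3T3 mouse fibroblasts as host cells; luminescent beta-galactosidase reporter signal from transgenic T. cruzi replicating inside host cells; inhibitors lower the luminescence signal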
[11] = cytotoxicity toward NIH3T3 fibroblasts, dose response, counter-screen, cell-based, ATP luminescence, mouse fibroblasts (AID 2010); assay type: functional;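 further: cells exposed to compound for about 90 hours before reading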
INS1 = experiment: beta cell apoptosis inhibitors, cytokine rescue, dose response, luminescence, retest (AID 449756); assay type: functional, cell-based; settings: Rattus norvegicus;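 further: cell death triggered by IL-1 beta plus TNF-alpha plus IFN-gamma mixture; protective hits raise ATP signal compared with cytokine alone wells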

Sequence of Cytochrome P450 2C9 (P11712 whole entry): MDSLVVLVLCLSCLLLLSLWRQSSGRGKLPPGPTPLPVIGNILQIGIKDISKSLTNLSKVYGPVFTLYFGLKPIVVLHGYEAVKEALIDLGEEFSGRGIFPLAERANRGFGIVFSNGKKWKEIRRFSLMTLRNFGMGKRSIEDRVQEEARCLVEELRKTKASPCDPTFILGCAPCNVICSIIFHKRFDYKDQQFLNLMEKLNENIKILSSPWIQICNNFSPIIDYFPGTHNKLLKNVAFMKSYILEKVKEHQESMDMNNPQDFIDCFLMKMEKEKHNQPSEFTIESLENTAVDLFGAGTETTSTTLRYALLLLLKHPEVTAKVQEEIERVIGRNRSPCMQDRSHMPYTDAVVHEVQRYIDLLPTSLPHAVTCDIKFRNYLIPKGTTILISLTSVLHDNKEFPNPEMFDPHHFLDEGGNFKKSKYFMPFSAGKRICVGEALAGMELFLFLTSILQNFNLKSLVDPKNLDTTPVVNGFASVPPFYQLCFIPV
Sequence of Genome polyprotein (P29990 2492-3391 limits assumed): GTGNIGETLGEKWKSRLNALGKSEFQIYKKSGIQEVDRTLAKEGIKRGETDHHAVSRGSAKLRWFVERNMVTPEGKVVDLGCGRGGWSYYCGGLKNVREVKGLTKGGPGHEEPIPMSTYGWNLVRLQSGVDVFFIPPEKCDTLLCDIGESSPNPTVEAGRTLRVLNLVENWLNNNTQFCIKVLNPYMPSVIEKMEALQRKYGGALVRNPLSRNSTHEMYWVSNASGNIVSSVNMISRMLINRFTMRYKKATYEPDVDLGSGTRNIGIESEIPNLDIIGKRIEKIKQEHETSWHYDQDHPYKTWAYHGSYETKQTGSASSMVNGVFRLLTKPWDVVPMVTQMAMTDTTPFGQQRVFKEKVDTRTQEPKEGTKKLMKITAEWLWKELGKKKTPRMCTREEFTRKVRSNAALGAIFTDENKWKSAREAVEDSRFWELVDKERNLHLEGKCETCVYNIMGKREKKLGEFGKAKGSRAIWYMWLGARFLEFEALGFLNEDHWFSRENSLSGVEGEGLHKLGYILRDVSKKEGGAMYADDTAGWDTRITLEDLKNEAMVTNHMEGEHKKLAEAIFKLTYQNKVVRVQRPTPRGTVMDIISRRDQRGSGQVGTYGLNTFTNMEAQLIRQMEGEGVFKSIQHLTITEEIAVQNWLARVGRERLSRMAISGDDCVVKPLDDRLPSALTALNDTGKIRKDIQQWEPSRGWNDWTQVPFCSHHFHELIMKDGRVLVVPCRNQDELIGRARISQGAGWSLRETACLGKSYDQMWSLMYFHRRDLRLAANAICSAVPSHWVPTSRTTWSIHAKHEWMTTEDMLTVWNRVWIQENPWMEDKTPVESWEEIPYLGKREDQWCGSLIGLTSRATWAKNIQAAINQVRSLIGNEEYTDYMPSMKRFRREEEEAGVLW

## CCC(C)[C@H](NC(=O)Nc1ccc(C(C)=O)cc1)C(=O)OC (some centres not stated)
Coagulation factor XII
  IC50: > 50 µM (inactive)

## Nc1[nH]nc2nc(NCc3ccccc3)c3c(c12)CCN(Cc1ccccc1)C3
[1]
  EC50: > 120 µM (not active)
[2]
  EC50: 20.1 µM (active)
Vero
  IC50: > 25 µM (active)
[3]
  EC50: 16.3 µM (active)

## CC(C)OC(=O)c1cccc(NC(=O)CSc2nnc(N)s2)c1
Coagulation factor XII
  IC50: > 50 µM (inactive)

## COc1ccc(CN(C)C(=S)Nc2ccc(Cl)cc2)cc1
Coagulation factor XII
  IC50: > 50 µM (inactive)

## COc1ccc(OC)c(N2C(=O)C(Cl)=C(N3CCOCC3)C2=O)c1
Protein RecA
  EC50: 26.3 µM (active)
Genome polyprotein
  IC50: 18.1 µM (active)
[4]
  AC50: 145 µM (active)

## CCOC(=O)c1c(CSc2ccsc2)n(C)c2cc(Br)c(O)c(CN(C)C)c12
[5]
  AC50: 2.45 µM (active)
[6]
  AC50: 1.3 µM (active)
[7]
  AC50: 2.34 µM (active)
[8]
  AC50: 4.04 µM (active)

## C=CCSC[C@@H]1Nc2cc(Cl)c(S(N)(=O)=O)cc2S(=O)(=O)N1
Cytochrome P450 2C9
  AC50: inconclusive

## O=C(CCl)N(Cc1cc(O)nc2ccccc12)c1ccccc1
Protein RecA
  EC50: 2.38 µM (active)
[9]
  AC50: 5.42 µM (active)
[4]
  AC50: 5.06 µM (active)

## COc1cc(NC(=O)c2ccc([N+](=O)[O-])o2)ccc1NC(=O)c1cccs1
[10]
  EC50: 0.548 µM (active)
[9]
  AC50: 8.46 µM (active)
[11]
  EC50: > 60 µM (not active)
INS1
  AC50: 11.2 µM (active)

## Cc1nn(CC(=O)N2CCc3ccccc3C2)c(C)c1[N+](=O)[O-]
Coagulation factor XII
  IC50: > 50 µM (inactive)

## COc1ccc(C(=O)NC2CCCc3c2cnn3-c2cccc(C)c2C)o1 (configuration not stated)
Vero
  IC50: > 25 µM (active)

## CON(C)c1nc(OCCNC(=O)OCc2ccc(Cl)cc2C)nc(N(C)C)n1
[5]
  AC50: 2.32 µM (active)
[6]
  AC50: 1.29 µM (active)
[7]
  AC50: 2.22 µM (active)
[8]
  AC50: 0.357 µM (active)

## CC(C)OP(=O)(Nc1cccc2ccccc12)OC(C)C
[5]
  AC50: 5.98 µM (active)
[6]
  AC50: 4.78 µM (active)
[7]
  AC50: 5.55 µM (active)
[8]
  AC50: 7.86 µM (active)
